Assay results as given in patent US5385842A, “Anthraquinones as inhibitors of sulfide production from sulfate-reducing bacteria” (E. I. Du Pont de Nemours and Company, priority 1993, dated 1995).

Key:
Assay type in all cases: cell-based
[1] = test system: Thiobacillus denitrificans; test: Growth of Thiobacillus denitrificans
Experimental: Thiobacillus denitrificans was grown on BTZ-3 medium as defined in Example 1 (supplemented with reducing agent) and with 30 mM sodium nitrate plus 30 mM sodium thiosulfate. Cultures were anaerobic under a nitrogen atmosphere. Thus growth conditions mimicked those for the sulfate-reducingbacteria as closely as possible. […]

[2] = test system: D. desulfuricans #ATCC27774; test: Rate of hydrogen utilization in the presence of different electron acceptors
Text: The following experiments show the effect of the 1,8-dihydroxy-anthraquinone on the rate of hydrogen utilization by bacteria in the presence of different electron acceptors.

[3] = test system: D. desulfuricans G100A; test: Effect of dithionite-reduced anthraquinones on growth of D. desulfuricans G100A
Experimental: Three anthraquinones, 1,8-dihydroxy-, 1-chloro-, and 3-chloro-2-carboxy- were prepared as 1 ml of 1000 ppm solutions in acetone for the first two compounds or water for the third. These solutions were then treated with 1 mg of the strong reducing agent, sodium dithionite. 50 ul of each solution (for a final culture concentration of 5 ppm) was used immediately to treat growing cultures of D. desulfuricans G100A in BTZ-3 medium as defined in Example 1. The compounds were added to the 10 ml cultures at 15 h of growth.

[4] = test system: Desulfovibrio gigas; test: Sulfide production by resting cells of D. gigas
Experimental: Experiments in this example were carried out using resting cells of Desulfovibrio gigas rather than growing cells as was the case for the autoanalyzer system employing the Desulfovibrio desulfuricans G100A strain. […] Thus the experiment examined a different organism, different test system, and a different physiological state for the phenomenon of anthraquinone inhibition of sulfide production by Desulfovibrio sp. Active compounds, as determined by the autoanalyzer, were evaluated in comparison with four additional compounds not evaluated in the autoanalyzer.
500 ml cultures of Desulfovibrio gigas were grown on standard BTZ-3 medium as previously described in Example 1 with 30 mM sodium lactate, 30 mM sodium sulfate and 30 mM sodium fumarate. The culture was harvested after 24 h of growth at 31° C. by centrifugation at 8000 rpm in a GSA Sorvall rotor for 20 minutes. The cell pellet was resuspended in 30 ml of incubation assay mixture of the following composition: 50 mM HEPES buffer pH 7 buffer, 2.5 mM sodium lactate, 2.5 mM sodium sulfate. This suspension was centrifuged again at 10,000 rpm in a Sorvall SS-34 rotor for 5 minutes. The resulting cell pellet was resuspended in 5 ml of incubation assay buffer. Cell densities were generally near 10e10 cells/mi.
The samples were assayed for production in the presence of anthraquinones. 200 ul of the cell suspension was added to 1.2 ml of incubation assay mixture in a 5 ml capacity test tube. The tube was gassed with hydrogen gas for 20 minutes then the anthraquinones were added as ethanolic solutions, the tubes were then gassed with hydrogen again for 5 minutes. The reaction mixtures were then incubated for 3 hours at 31° C. The reactions were stopped by the addition of 200 ul of 1N sodium hydroxide. After 20 minutes the alkaline mixtures were centrifuged in a table top microfuge for 4 minutes at 14,000 rpm to remove cells and cell debris. The supernatant was then assayed for sulfide using the ferric chloride-DPD reagent system as described by Siegel et al., Anal. Blochem., 11:126-132, 1965, herein incorporated by reference.

[5] = test system: D. desulfuricans G100A; test: Growth of different sulfate-reducers with 1,8-dihydroxyanthraquinone (Example 6); details: 3 ppm, 40 hours; control >1.5
Experimental: Growth was monitored as optical density at 660 nm for 40 hours.

O=C1c2cccc(O)c2C(=O)c2c(O)cccc21 [1,8-Dihydroxyanthraquinone]
Optical Density @ 660 nm ([1]; 0 h of growth, before addition of 3 ppm at 19 h, control .02): .0
effect on growth (in words) ([1]; 3 ppm): no effect on the growth of T. denitrificans
Optical Density @ 660 nm ([1]; 12 h of growth, before addition of 3 ppm at 19 h, control .06): .06
Optical Density @ 660 nm ([1]; 15 h of growth, before addition of 3 ppm at 19 h, control .08): .08
Optical Density @ 660 nm ([1]; 19 h of growth, time of addition of 3 ppm, control .09): .09
Optical Density @ 660 nm ([1]; 34 h of growth, 3 ppm added at 19 h, control .22): .22
Optical Density @ 660 nm ([1]; 36 h of growth, 3 ppm added at 19 h, control .29): .25
Optical Density @ 660 nm ([1]; 38 h of growth, 3 ppm added at 19 h, control .32): .27
Optical Density @ 660 nm ([1]; 43 h of growth, 3 ppm added at 19 h, control .40): .32
Optical Density @ 660 nm ([1]; 55 h of growth, 3 ppm added at 19 h, control 1.5): 1.5
Hydrogen ([2]; Fumarate as electron acceptor, 3 ppm, 0 min, control 0): 0 µL
Hydrogen ([2]; Fumarate as electron acceptor, 3 ppm, 10 min, control 9): 8 µL
Hydrogen ([2]; Fumarate as electron acceptor, 3 ppm, 25 min, control 23): 25 µL
Hydrogen ([2]; Fumarate as electron acceptor, 3 ppm, 40 min, control 47): 48 µL
Hydrogen ([2]; Fumarate as electron acceptor, 3 ppm, 55 min, control 70): 74 µL
Hydrogen ([2]; Fumarate as electron acceptor, 3 ppm, 70 min, control 95): 101 µL
Hydrogen ([2]; Sulfate as electron acceptor, 3 ppm, 0 min, control 0): 0 µL
Hydrogen ([2]; Sulfate as electron acceptor, 3 ppm, 10 min, control 15): 3 µL
Hydrogen ([2]; Sulfate as electron acceptor, 3 ppm, 25 min, control 44): 14 µL
Hydrogen ([2]; Sulfate as electron acceptor, 3 ppm, 40 min, control 76): 21 µL
Hydrogen ([2]; Sulfate as electron acceptor, 3 ppm, 55 min, control 107): 28 µL
Hydrogen ([2]; Sulfate as electron acceptor, 3 ppm, 70 min, control 152): 38 µL
Hydrogen ([2]; Sulfate as electron acceptor, 3 ppm, 85 min, control 208): 45 µL
Hydrogen ([2]; Sulfate as electron acceptor, 3 ppm, 100 min, control 266): 56 µL
Hydrogen ([2]; Sulfate as electron acceptor, 3 ppm, 115 min, control 336): 74 µL
Hydrogen ([2]; Sulfite as electron acceptor, 3 ppm, 0 min, control 0): 0 µL
Hydrogen ([2]; Sulfite as electron acceptor, 3 ppm, 6 min, control 7): 7 µL
Hydrogen ([2]; Sulfite as electron acceptor, 3 ppm, 16 min, control 26): 25 µL
Hydrogen ([2]; Sulfite as electron acceptor, 3 ppm, 26 min, control 45): 43 µL
Hydrogen ([2]; Sulfite as electron acceptor, 3 ppm, 59 min, control 139): 141 µL
Hydrogen ([2]; Sulfite as electron acceptor, 3 ppm, 71 min, control 179): 183 µL
Hydrogen ([2]; Thiosulfate as electron acceptor, +6 ppm, 0 min, control 0): 0 µL
Hydrogen ([2]; Thiosulfate as electron acceptor, +6 ppm, 11 min, control 38): 33 µL
Hydrogen ([2]; Thiosulfate as electron acceptor, +6 ppm, 21 min, control 90): 73 µL
Hydrogen ([2]; Thiosulfate as electron acceptor, +6 ppm, 31 min, control 144): 118 µL
Hydrogen ([2]; Thiosulfate as electron acceptor, +6 ppm, 41 min, control 204): 176 µL
Optical Density @ 660 nm ([3]; 0 h, before addition of 5 ppm dithionite-reduced compound at 15 h, control 0.02): 0.02
Optical Density @ 660 nm ([3]; 2 h, before addition of 5 ppm dithionite-reduced compound at 15 h, control 0.02): 0.02
Optical Density @ 660 nm ([3]; 12 h, before addition of 5 ppm dithionite-reduced compound at 15 h, control 0.08): 0.10
Optical Density @ 660 nm ([3]; 15 h, time of addition of 5 ppm dithionite-reduced compound, control 0.18): 0.2
Optical Density @ 660 nm ([3]; 17 h, 5 ppm dithionite-reduced compound added at 15 h, control 0.26): 0.24
Optical Density @ 660 nm ([3]; 20 h, 5 ppm dithionite-reduced compound added at 15 h, control 0.37): 0.23
Optical Density @ 660 nm ([3]; 25 h, 5 ppm dithionite-reduced compound added at 15 h, control 0.50): 0.22
Optical Density @ 660 nm ([3]; 30 h, 5 ppm dithionite-reduced compound added at 15 h, control 0.98): 0.23
Optical Density @ 660 nm ([3]; 45 h, 5 ppm dithionite-reduced compound added at 15 h, control 1.50): 0.25
activity at 0.1 ppm ([4]; Desulfovibrio, 0.1 ppm, 3 hours at 31° C.): 101%
activity at 0.5 ppm ([4]; Desulfovibrio, 0.5 ppm, 3 hours at 31° C.): 51%
activity at 2 ppm ([4]; Desulfovibrio, 2 ppm, 3 hours at 31° C.): 4%
activity at 5 ppm ([4]; Desulfovibrio, 5 ppm, 3 hours at 31° C.): 2.3%
inhibition of sulfide production (in words) ([4]; resting cells): inhibitory properties
Optical Density @ 660 nm, treated [5]: .20
